Source: ChEMBL document CHEMBL1201862, “PubChem BioAssay data set” (2004)
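Cells were grown in 96-well plates and exposed to each compound for 48 hours at five concentrations; endpoints were interpolated linearly between bracketing concentrations, or set to the highest concentration if not reached. Here, GI50 denotes the concentration required for 50% inhibition of growth.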 Calls of active or inactive are those of the source. Cut-off read from the data, not from the text of the source: active = GI50 up to about 1.1 µM and inactive = higher.

What was measured:
Test in all cases: growth of human tumour cells (NCI), 48 h
[1] = system: SF-295
[2] = system: MDA-MB-231
[3] = system: HT-29
[4] = system: TK-10
[5] = system: COLO 205
[6] = system: NCI/ADR-RES
[7] = system: OVCAR-5
[8] = system: DU-145
[9] = system: Malme-3M
[10] = system: MOLT-4
[11] = system: SNB-75
[12] = system: HCC 2998
[13] = system: 786-0
[14] = system: SN12C
[15] = system: UACC-62
[16] = system: K562
[17] = system: Hs-578T
[18] = system: RXF 393
[19] = system: LOX IMVI
[20] = system: HOP-92

Measured: GI50

CCOC(=O)/C(C#N)=C/c1ccc(CO)o1
inactive: [1] > 100 µM | [2] > 100 µM | [3] > 100 µM | [4] > 100 µM | [5] > 100 µM | [6] > 100 µM | [7] > 100 µM | [8] > 100 µM | [9] > 100 µM | [10] > 100 µM | [11] > 100 µM | [12] > 100 µM | [13] > 100 µM | [14] > 100 µM | [15] > 100 µM | [16] > 100 µM | [17] > 100 µM | [18] > 100 µM | [19] > 100 µM

C#CCn1c(=O)c2ccccc2n(CC#C)c1=O
inactive: [1] > 10 µM | [2] > 10 µM | [3] > 10 µM | [4] > 10 µM | [5] > 10 µM | [6] > 10 µM | [7] > 10 µM | [8] > 10 µM | [9] > 10 µM | [10] > 10 µM | [20] > 10 µM | [11] > 10 µM | [12] > 10 µM | [13] > 10 µM | [14] > 10 µM | [16] > 10 µM | [17] > 10 µM | [18] > 10 µM | [19] > 10 µM

NC1=C(N2CCCCC2)C(=O)NC2=N/C(=C\c3ccccc3)C(=O)N21
inactive: [1] > 100 µM | [2] > 100 µM | [3] > 100 µM | [4] > 100 µM | [5] > 100 µM | [6] > 100 µM | [7] > 100 µM | [8] > 100 µM | [9] > 100 µM | [10] 62.1 µM | [20] > 100 µM | [11] > 100 µM | [12] > 100 µM | [13] > 100 µM | [14] > 100 µM | [16] 57.5 µM | [17] > 100 µM | [18] > 100 µM | [19] > 100 µM

COC(=O)C1CCC(=S)N1C(C)=O (stereo not given)
inactive: [1] > 100 µM | [2] > 100 µM | [3] > 100 µM | [4] > 100 µM | [5] > 100 µM | [6] > 100 µM | [7] > 100 µM | [8] > 100 µM | [9] > 100 µM | [10] > 100 µM | [20] > 100 µM | [11] > 100 µM | [12] > 100 µM | [13] > 100 µM | [15] > 100 µM | [16] > 100 µM | [17] > 100 µM | [18] > 100 µM

CCOC(=O)Nc1c(C#N)[n+]([O-])c2cc(Cl)c(Cl)cc2[n+]1[O-]
inactive: [1] 14.6 µM | [2] 15.9 µM | [3] 12 µM | [4] 27.5 µM | [5] 15 µM | [6] 20.7 µM | [8] 32.5 µM | [9] 15.2 µM | [10] 8.71 µM | [20] 5.4 µM | [11] 15.4 µM | [13] 15.6 µM | [14] 16.4 µM | [15] 10.7 µM | [16] 16.3 µM | [17] 39.5 µM | [18] 15.1 µM | [19] 6.1 µM

Fc1ccc(OCc2nc3cc(C(F)(F)F)ccc3nc2-c2ccccc2)cc1
inactive: [1] > 100 µM | [2] > 100 µM | [3] 21.4 µM | [5] > 100 µM | [6] 98.2 µM | [7] > 100 µM | [8] > 100 µM | [9] > 58.9 µM | [10] 13.2 µM | [20] > 45.3 µM | [11] > 100 µM | [12] 99.5 µM | [13] > 100 µM | [14] > 100 µM | [15] > 100 µM | [16] 3.06 µM | [17] > 81.7 µM | [18] > 100 µM | [19] > 100 µM

NS(=O)(=O)c1nnc(NC(=O)/C=C/C(=O)O)s1
inactive: [1] > 100 µM | [2] > 100 µM | [3] > 100 µM | [4] > 100 µM | [5] > 100 µM | [6] > 100 µM | [7] > 100 µM | [8] > 100 µM | [9] > 100 µM | [10] > 100 µM | [20] > 100 µM | [12] > 100 µM | [13] > 100 µM | [14] > 100 µM | [15] > 100 µM | [16] > 100 µM | [17] > 100 µM | [18] > 100 µM | [19] > 100 µM

O=[N+]([O-])c1cc2c(cc1/C=N/n1c(CO)nc3ccccc31)OCO2
inactive: [1] > 100 µM | [2] > 100 µM | [3] > 100 µM | [4] > 100 µM | [5] > 100 µM | [6] > 100 µM | [7] > 100 µM | [8] > 100 µM | [9] > 100 µM | [10] > 100 µM | [20] > 100 µM | [11] > 100 µM | [13] > 100 µM | [14] > 100 µM | [15] > 100 µM | [16] > 100 µM | [17] > 100 µM | [18] > 100 µM | [19] > 100 µM

CS/C(Nc1ccccc1)=C1\C(=O)N(c2ccccc2)N=C1C
inactive: [2] > 100 µM | [3] > 100 µM | [4] > 100 µM | [5] > 100 µM | [6] > 100 µM | [7] > 100 µM | [8] > 100 µM | [9] > 100 µM | [10] > 100 µM | [11] > 100 µM | [12] > 100 µM | [13] > 100 µM | [14] > 100 µM | [15] > 100 µM | [16] > 100 µM | [17] > 100 µM | [18] > 100 µM | [19] > 100 µM

O=C(Nc1ccc(Cl)cc1Cl)C1C(=O)OC2(CCCCC2)OC1=O
inactive: [1] 2.92 µM | [2] 14.1 µM | [3] 11.5 µM | [4] 14.1 µM | [5] 10.4 µM | [6] 4.93 µM | [7] 9.12 µM | [8] 10.5 µM | [10] 5.15 µM | [20] 6.82 µM | [11] 10.4 µM | [12] 13 µM | [13] 12.2 µM | [14] 14.7 µM | [15] 11 µM | [16] 4.72 µM | [17] 10.8 µM | [18] 5.36 µM | [19] 6.22 µM

NCCSc1nc(-c2ccccc2)c(-c2ccccc2)o1
inactive: [1] > 100 µM | [2] > 100 µM | [3] 31.7 µM | [4] 15.3 µM | [5] > 100 µM | [6] > 100 µM | [7] > 100 µM | [8] > 100 µM | [9] > 100 µM | [20] > 100 µM | [11] 21 µM | [13] 32.1 µM | [14] 77.8 µM | [15] > 100 µM | [16] > 100 µM | [17] > 100 µM | [18] 42.2 µM | [19] > 100 µM

CC(CS(=O)(=O)Cc1ccccc1)C(N)=O (stereo not given)
inactive: [1] > 100 µM | [2] > 100 µM | [3] > 100 µM | [4] > 100 µM | [5] > 100 µM | [6] > 100 µM | [7] > 100 µM | [8] > 100 µM | [9] > 100 µM | [10] > 100 µM | [20] > 100 µM | [13] > 100 µM | [14] > 100 µM | [15] > 100 µM | [16] > 100 µM | [17] > 100 µM | [19] > 100 µM

O[C@H]1[C@@H]2OC[C@@H](O)[C@H](OCc3ccccc3)[C@@](COCc3ccccc3)(O2)[C@@H]1OCc1ccccc1
inactive: [1] 12.6 µM | [2] 17 µM | [3] 15.2 µM | [4] 17.2 µM | [5] 18.2 µM | [6] 16.7 µM | [7] 15.1 µM | [8] 18.5 µM | [9] 13.6 µM | [10] 30.7 µM | [20] 10.2 µM | [11] 2.39 µM | [13] 19.9 µM | [14] 14.7 µM | [15] 11.4 µM | [16] 25.4 µM | [17] 14.7 µM | [18] 20.2 µM | [19] 18.5 µM

CC(=O)OC1CC2CCC1(C)C2(C)C (stereo not given)
inactive: [1] > 100 µM | [2] > 100 µM | [3] > 100 µM | [4] > 100 µM | [5] > 100 µM | [6] > 100 µM | [7] > 100 µM | [8] > 100 µM | [9] > 100 µM | [10] > 100 µM | [11] > 100 µM | [12] > 100 µM | [13] > 100 µM | [14] > 100 µM | [15] > 100 µM | [16] > 100 µM | [17] > 100 µM | [18] > 100 µM | [19] > 100 µM

Fc1cc(C2=Nn3c(COc4ccccc4Cl)nnc3S/C2=C\c2ccc(Cl)cc2)c(Cl)cc1Cl
inactive: [1] 4.28 µM | [2] 3.72 µM | [3] 3.18 µM | [4] 11.6 µM | [6] 4.24 µM | [7] 3.96 µM | [8] 5.97 µM | [10] 5.97 µM | [20] 1.36 µM | [12] 3.6 µM | [13] 4.23 µM | [16] 3.77 µM | [17] 11.8 µM | [18] 9.89 µM | [19] 3.92 µM
